From US20210309657A1, “TRICYCLIC COMPOUNDS FOR THE TREATMENT AND PROPHYLAXIS OF BACTERIAL INFECTION” (Hoffmann-La Roche Inc., priority 2018, published 2021)
pIC50: −log10 of the molar value. Values after ≈ are worked out from the molar mass of the structure shown. Like-named read-outs stand apart in the source and are kept apart here.

Experiments:
S. aureus (ATCC29213) = assay: 50% growth inhibitory concentration (IC50) determination assay, S. aureus; type: cell-based; settings: Staphylococcus aureus, growth inhibition, Iso-Sensitest broth, OD 600 nm over 16h, <0.098 = the detection limit
Protocol: (§1) The in vitro antimicrobial activity of the compounds against S. aureus (ATCC29213), K. pneumoniae (ATCC10031), and A. baumannii (ATCC17978), was determined according to the following procedure: The assay used a 10-points Iso-Sensitest broth medium to measure quantitatively the in vitro activity of the compounds against S. aureus ATCC29213, K. pneumoniae ATCC 10031, and A. baumannii ATCC17978. Stock compounds in DMSO were serially two-fold diluted (range from 50 to 0.097 μM final concentration) in 384 wells microtiter plates and inoculated with 49 μL the bacterial suspension in Iso-Sensitest broth medium to have a final cell concentration of ˜5×10^5 CFU/mL in a final volume/well of 50 μL/well. Microtiter plates were incubated at 35±2° C. Bacterial cell growth was determined with the measurement of optical density at λ=600 nm each 20 minutes over a time course of 16h. Growth inhibition was calculated during the logarithmic growth of the bacterial cells with determination of the concentration inhibiting 50% (IC50) of the growth. Compounds of the present invention were tested for their concentration inhibiting 50% (IC50). The data of IC50 over S. aureus (ATCC29213), K. pneumoniae (ATCC10031), and A. baumannii (ATCC17978) are illustrated in Table 4.

A. baumannii (ATCC17978) = assay: 50% growth inhibitory concentration (IC50) determination assay, A. baumannii; type: cell-based; settings: Acinetobacter baumannii, growth inhibition, Iso-Sensitest broth, OD 600 nm over 16h, <0.098 = the detection limit
Protocol: as §1

[1] = test system: K. pneumoniae (ATCC10031); assay: 50% growth inhibitory concentration (IC50) determination assay, K. pneumoniae; type: cell-based; settings: Klebsiella pneumoniae, growth inhibition, Iso-Sensitest broth, OD 600 nm over 16h, <0.098 = the detection limit
Protocol: as §1

[2] = Lyophilisation solubility assay (LYSA); type: physicochemical; settings: thermodynamic from solid
Protocol: The solubility of compounds of present invention was assessed by LYSA assay. Samples were prepared in duplicate from 10 mM DMSO stock solutions ([…]) diluted in 30 μL pure DMSO. After evaporation of DMSO with a centrifugal vacuum evaporator, the residue was dissolved in 0.05 M phosphate buffer (150 μL, pH 6.5), which was stirred for one hour and shook for two hours. After one night, the solution was filtered using a microtiter filter plate. Then the filtrate and its 1/10 dilution were analyzed by HPLC-UV. In addition, a four-point calibration curve was prepared from the 10 mM stock solutions and used for the solubility determination of the compounds.

[3] = aqueous buffer, 0.05 M phosphate buffer, pH 6.5, HPLC-UV, <1.0 = the detection limit, read-out: Lysa

Row | pIC50 (S. aureus (ATCC29213)) | pIC50 (A. baumannii (ATCC17978)) | pIC50 [1] | solubility thermodynamic [2, 3] | Structure (SMILES) | solubility thermodynamic ([2]; pH 6.5, aqueous buffer)
1 | 6.43 | > 7.01 | > 7.01 | – | CNc1cc(F)c(F)c2c1[nH]c1ncc(-c3cnc4ccnn4c3)c(N3CC[C@H]4CN(C)C[C@H]43)c12 (relative stereo) [Example 1.50, 4-[Cis-5-methyl-2,3,3a,4,6,6a-hexahydropyrrolo[2,3-c]pyrrol-1-yl]-5,6-difluoro-N-methyl-3-pyrazolo[1,5-a]pyrimidin-6-yl-9H-pyrido[2,3-b]indol-8-amine] | –
2 | 5.99 | > 7.01 | – | – | CNc1cc(F)c(F)c2c1[nH]c1ncc(-c3cncc(C#N)c3)c(N3CCC4(C[C@H]4N)C3)c12 (stereo in doubt) [Example 1.30, 5-[4-[Cis-2-amino-5-azaspiro[2.4]heptan-5-yl]-5,6-difluoro-8-(methylamino)-9H-pyrido[2,3-b]indol-3-yl]pyridine-3-carbonitrile] | –
3 | – | – | – | 475 µg/mL (≈ 1040 µM) | CNc1cc(F)c(F)c2c1[nH]c1ncc(-c3cnc(OC)nc3)c(N3CCOC(CN)C3)c12 (stereo not drawn) [Example 1.33, 4-[2-(Aminomethyl)morpholin-4-yl]-5,6-difluoro-3-(2-methoxypyrimidin-5-yl)-N-methyl-9H-pyrido[2,3-b]indol-8-amine] | –
4 | – | – | – | 140 µg/mL (≈ 309 µM) | CNc1cc(F)c(F)c2c1[nH]c1ncc(-c3cnc(OC)nc3)c(N3CCC(C)(CN)C3)c12 (stereo not drawn) [Example 1.36, 4-[3-(Aminomethyl)-3-methyl-pyrrolidin-1-yl]-5,6-difluoro-3-(2-methoxypyrimidin-5-yl)-N-methyl-9H-pyrido[2,3-b]indol-8-amine] | –
5 | – | – | – | 545 µg/mL (≈ 1240 µM) | CNc1cc(F)c(F)c2c1[nH]c1ncc(-c3cnc(OC)nc3)c(N3CCCC3CN)c12 (stereo not drawn) [Example 1.37, 4-[2-(Aminomethyl)pyrrolidin-1-yl]-5,6-difluoro-3-(2-methoxypyrimidin-5-yl)-N-methyl-9H-pyrido[2,3-b]indol-8-amine] | –
6 | – | – | – | > 610 µg/mL | CNc1cc(F)c(F)c2c1[nH]c1ncc(-c3cncc(C#N)c3)c(N3CCCC3CN)c12 (stereo not drawn) [Example 1.38, 5-[4-[2-(Aminomethyl)pyrrolidin-1-yl]-5,6-difluoro-8-(methylamino)-9H-pyrido[2,3-b]indol-3-yl]pyridine-3-carbonitrile] | –
7 | – | – | – | 49 µg/mL (≈ 109 µM) | CNc1cc(F)c(F)c2c1[nH]c1ncc(-c3cncc(C#N)c3)c(N3CCC[C@@H](CN)C3)c12 [Example 1.40, 5-[4-[(3S)-3-(Aminomethyl)-1-piperidyl]-5,6-difluoro-8-(methylamino)-9H-pyrido[2,3-b]indol-3-yl]pyridine-3-carbonitrile] | –
8 | 6.00 | 6.28 | 6.76 | – | CCNc1cc(F)c(C)c2c1[nH]c1ncc(-c3cncc(C#N)c3)c(N3CCC(CN)C3)c12 (stereo not drawn) [Example 1.45, 5-(4-(3-(Aminomethyl)pyrrolidin-1-yl)-8-(ethylamino)-6-fluoro-5-methyl-9H-pyrido[2,3-b]indol-3-yl)nicotinonitrile] | –
9 | 5.88 | 6.84 | > 7.01 | – | CNc1cc(F)c(F)c2c1[nH]c1ncc(-c3cncc(C#N)c3)c(N3CCC4(CCC4N)C3)c12 (stereo not drawn) [Example 1.49, 5-(4-(1-Amino-6-azaspiro[3.4]octan-6-yl)-5,6-difluoro-8-(methylamino)-9H-pyrido[2,3-b]indol-3-yl)nicotinonitrile] | –
10 | 5.98 | > 7.01 | > 7.01 | – | CNc1cc(F)c(F)c2c1[nH]c1ncc(-c3cc[nH]c(=O)c3)c(N(C)C)c12 [Example 1.51, 4-[4-(Dimethylamino)-5,6-difluoro-8-(methylamino)-9H-pyrido[2,3-b]indol-3-yl]-1H-pyridin-2-one] | –
11 | – | – | – | 129 µg/mL (≈ 297 µM) | CCNc1cc(F)cc2c1[nH]c1ncc(-c3cnc(C4(C(=O)O)CC4)nc3)c(N(C)C)c12 [Example 2.01, 1-[5-[4-(Dimethylamino)-8-(ethylamino)-6-fluoro-9H-pyrido[2,3-b]indol-3-yl]pyrimidin-2-yl]cyclopropanecarboxylic acid] | –
12 | – | – | – | 196 µg/mL (≈ 428 µM) | CNc1cc(F)cc2c1[nH]c1ncc(-c3cnc(OC)nc3)c(N3CC(CN)C(F)(F)C3)c12 (stereo not drawn) [Example 3.02, 4-[4-(aminomethyl)-3,3-difluoro-pyrrolidin-1-yl]-6-fluoro-3-(2-methoxypyrimidin-5-yl)-N-methyl-9H-pyrido[2,3-b]indol-8-amine] | –

The remaining lines, values behind:

Row | Structure (SMILES) | pIC50 (S. aureus (ATCC29213)) | pIC50 (A. baumannii (ATCC17978)) | pIC50 [1] | solubility thermodynamic [2, 3] | solubility thermodynamic ([2]; pH 6.5, aqueous buffer)
13 | CCNc1cc(F)cc2c1[nH]c1ncc(-c3cncc(C#N)c3)c(N3CCC4(C[C@H]4N)C3)c12 (stereo in doubt) [Example 1.11, 5-[8-(Ethylamino)-6-fluoro-4-[cis-2-amino-5-azaspiro[2.4]heptan-5-yl]-9H-pyrido[2,3-b]indol-3-yl]pyridine-3-carbonitrile] | 6.06 | > 7.01 | > 7.01 | – | –
14 | CNc1cc(F)c(F)c2c1[nH]c1ncc(-c3cncc(C#N)c3)c(N3CCC4(C[C@@H]4N)C3)c12 (stereo in doubt) [Example 1.29, 5-[4-[Trans-2-amino-5-azaspiro[2.4]heptan-5-yl]-5,6-difluoro-8-(methylamino)-9H-pyrido[2,3-b]indol-3-yl]pyridine-3-carbonitrile] | 5.91 | 7.00 | – | 16 µg/mL (≈ 35.9 µM) | –
15 | CNc1cc(F)cc2c1[nH]c1ncc(-c3cncc(C#N)c3)c(N3CC[C@@H](N)C3)c12 [Example 1.01, 5-[4-[(3R)-3-Aminopyrrolidin-1-yl]-6-fluoro-8-(methylamino)-9H-pyrido[2,3-b]indol-3-yl]pyridine-3-carbonitrile] | – | – | – | 59 µg/mL (≈ 147 µM) | –
16 | CCNc1cc(Cl)cc2c1[nH]c1ncc(-c3cncc(C#N)c3)c(N3CCC(N)C3)c12 (stereo not drawn) [Example 1.03, 5-[4-(3-Aminopyrrolidin-1-yl)-6-chloro-8-(ethylamino)-9H-pyrido[2,3-b]indol-3-yl]pyridine-3-carbonitrile] | – | – | – | 32.7 µg/mL (≈ 75.7 µM) | –
17 | CCNc1cc(F)cc2c1[nH]c1ncc(-c3cncc(C#N)c3)c(N3CCCC3CN)c12 (stereo not drawn) [Example 1.06, 5-[4-[2-(Aminomethyl)pyrrolidin-1-yl]-8-(ethylamino)-6-fluoro-9H-pyrido[2,3-b]indol-3-yl]pyridine-3-carbonitrile] | – | – | – | > 625 µg/mL | –
18 | CCNc1cc(F)cc2c1[nH]c1ncc(-c3cncc(C#N)c3)c(N3CCC(F)(CN)C3)c12 (stereo not drawn) [Example 1.10, 5-[4-[3-(Aminomethyl)-3-fluoro-pyrrolidin-1-yl]-8-(ethylamino)-6-fluoro-9H-pyrido[2,3-b]indol-3-yl]pyridine-3-carbonitrile] | 6.51 | > 7.01 | > 7.01 | – | –
19 | CNc1cc(F)c(F)c2c1[nH]c1ncc(-c3cncc(C#N)c3)c(N3CCCC(CN)C3)c12 (stereo not drawn) [Example 1.21, 5-[4-[3-(Aminomethyl)-1-piperidyl]-5,6-difluoro-8-(methylamino)-9H-pyrido[2,3-b]indol-3-yl]pyridine-3-carbonitrile] | – | – | – | 44 µg/mL (≈ 98.3 µM) | –
20 | CNc1cc(F)cc2c1[nH]c1ncc(-c3cncc(C#N)c3)c(N3CCC(F)(CN)C3)c12 (stereo not drawn) [Example 1.23, 5-[4-[3-(Aminomethyl)-3-fluoro-pyrrolidin-1-yl]-6-fluoro-8-(methylamino)-9H-pyrido[2,3-b]indol-3-yl]pyridine-3-carbonitrile] | – | – | – | 30 µg/mL (≈ 69.2 µM) | –
21 | CNc1cc(F)c(F)c2c1[nH]c1ncc(-c3cnc(OC)nc3)c(N3CCC[C@@H](CN)C3)c12 [Example 1.25, 4-[(3S)-3-(Aminomethyl)-1-piperidyl]-5,6-difluoro-3-(2-methoxypyrimidin-5-yl)-N-methyl-9H-pyrido[2,3-b]indol-8-amine] | – | – | – | 194 µg/mL (≈ 428 µM) | –
22 | CNc1cc(F)c(F)c2c1[nH]c1ncc(-c3cncc(C#N)c3)c(N3CC4CC(C3)N4)c12 [Example 1.44, 5-(4-(3,6-Diazabicyclo[3.1.1]heptan-3-yl)-5,6-difluoro-8-(methylamino)-9H-pyrido[2,3-b]indol-3-yl)nicotinonitrile] | – | – | – | – | 270 µg/mL (≈ 626 µM)
23 | CNc1cc(F)c(F)c2c1[nH]c1ncc(-c3cncc(C#N)c3)c(N3C4CNCC3C4)c12 [Example 1.58, 5-(4-(3,6-Diazabicyclo[3.1.1]heptan-6-yl)-5,6-difluoro-8-(methylamino)-9H-pyrido[2,3-b]indol-3-yl)nicotinonitrile] | 6.64 | 6.74 | – | – | 320 µg/mL (≈ 742 µM)
24 | CNc1cc(F)cc2c1[nH]c1ncc(-c3cncc(C#N)c3)c(N3C4CNCC3C4)c12 [Example 1.60, 5-(4-(3,6-Diazabicyclo[3.1.1]heptan-6-yl)-6-fluoro-8-(methylamino)-9H-pyrido[2,3-b]indol-3-yl)nicotinonitrile] | 6.07 | – | – | – | 53 µg/mL (≈ 128 µM)
